Some test systems named below: RPMI-8226 leukemia; MOLT-4 leukemia; HCT-15 colon; OVCAR-5 ovarian; NCI-H23 lung; ACHN renal; SF-539 CNS.
Holding throughout (experiment): NCI-60 cell line screen, 48 h

Consider 20 compounds from PubChem BioAssay (NCI).

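Growth conditions: 96-well plates. Treatment: test compound, 48 hours, 5 concentrations. Analysis: linear interpolation between bracketing concentrations; unreached endpoints set to highest concentration. At the TGI there is no net growth.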

As for `Cc1ccc(S(=O)(=O)NC(=O)Nc2ccc(S(N)(=O)=O)cc2S(N)(=O)=O)cc1`, the TGI with RPMI-8226 leukemia, in the assay with MOLT-4 leukemia, in the assay with HCT-15 colon, in the assay with OVCAR-5 ovarian and in the assay on NCI-H23 lung was over 100 µM throughout.

`CC#CCCN(CC#N)Cc1ccccc1`: the TGI was over 100 µM in the assay on RPMI-8226 leukemia; over 100 µM with MOLT-4 leukemia; over 100 µM in the assay on HCT-15 colon; 48 µM in the assay on ACHN renal; over 100 µM in the assay with OVCAR-5 ovarian; over 100 µM in the assay with NCI-H23 lung.

As for `CCOC(=O)/C=C(/C(=O)OCC)n1ccc(=O)n(/C(=C/C(=O)OCC)C(=O)OCC)c1=O`, the TGI in the assay with SF-539 CNS is 34.2 µM; in the assay with RPMI-8226 leukemia it was 7.08 µM; in the assay with MOLT-4 leukemia, 3.84 µM; in the assay with HCT-15 colon, 6.32 µM; with ACHN renal, 8.06 µM; in the assay with OVCAR-5 ovarian it was 31.2 µM. For the same compound, the TGI in the assay with NCI-H23 lung is 42.7 µM.

On to `COc1cc(N(CCC#N)CCC#N)ccc1/C(N=Nc1ccccc1)=N/NC(=O)c1cc(Br)ccc1O`, for which the TGI in the assay with SF-539 CNS is 83.7 µM; with RPMI-8226 leukemia, 44.6 µM; in the assay with MOLT-4 leukemia, 38.3 µM; with HCT-15 colon, 68.2 µM; in the assay on ACHN renal, 81.6 µM; in the assay on OVCAR-5 ovarian, over 100 µM. This compound also came in with a TGI in the assay on NCI-H23 lung of 49.8 µM.

`Cc1cc(NS(=O)(=O)c2ccc(Nc3c4ccccc4nc4ccc(C(=O)Nc5ccc(S(N)(=O)=O)cc5)cc34)cc2)no1`: the TGI in the assay with SF-539 CNS, in the assay on RPMI-8226 leukemia, in the assay on MOLT-4 leukemia, in the assay with HCT-15 colon, in the assay on ACHN renal and in the assay with OVCAR-5 ovarian was over 100 µM throughout. In addition, in the assay with NCI-H23 lung, the TGI was over 100 µM.

As for `O=c1[nH]n(Cc2ccccn2)c2ccc([N+](=O)[O-])cc12`, the TGI in the assay on SF-539 CNS, in the assay on RPMI-8226 leukemia, in the assay with MOLT-4 leukemia, with HCT-15 colon, in the assay with ACHN renal and in the assay on OVCAR-5 ovarian was over 100 µM each time. In addition, the TGI with NCI-H23 lung is over 100 µM.

For `NNc1[nH]c(=S)[nH]c1C(N)=O`, the TGI in the assay with SF-539 CNS, with RPMI-8226 leukemia, with MOLT-4 leukemia, in the assay with HCT-15 colon and in the assay on OVCAR-5 ovarian was over 100 µM throughout.

On to `COc1ccc([C@@]23OC[C@@H]4[C@@H](OC[C@@H]42)c2cc(OC)c(OC)cc23)cc1OC`, for which the TGI in the assay on SF-539 CNS, with RPMI-8226 leukemia, with MOLT-4 leukemia, in the assay on HCT-15 colon, in the assay with ACHN renal and in the assay with OVCAR-5 ovarian was over 100 µM in each case. The compound also had a TGI with NCI-H23 lung of over 100 µM.

For `NC(=Nc1ccc(O)cc1)S(=O)O`, the TGI in the assay on SF-539 CNS, with RPMI-8226 leukemia, in the assay on MOLT-4 leukemia, in the assay with HCT-15 colon, in the assay on ACHN renal and with OVCAR-5 ovarian was over 100 µM in each case. In the assay on NCI-H23 lung, this compound registered a TGI of over 100 µM.

Turning to `Cc1ccc(S(=O)(=O)N2CCCC2C(=O)O[C@H]2CC[C@H]3CC=C[C@H]32)cc1` (stereo not given in full), the TGI was 77.7 µM in the assay on RPMI-8226 leukemia; 33.4 µM in the assay with MOLT-4 leukemia; over 31.6 µM in the assay with ACHN renal; over 100 µM in the assay on OVCAR-5 ovarian; over 100 µM in the assay with NCI-H23 lung.

Consider `O=C(CCN1CCOCC1)Nc1ccc2sc3ccccc3c(=O)c2n1`, for which the TGI with SF-539 CNS, in the assay with RPMI-8226 leukemia, with HCT-15 colon, in the assay with ACHN renal, with OVCAR-5 ovarian and in the assay on NCI-H23 lung was over 100 µM throughout.

With `O=C(O)CCCOc1cc(-c2ccccc2F)nc2cc3c(cc12)OCO3`, the TGI was 63.2 µM with SF-539 CNS; over 100 µM in the assay on RPMI-8226 leukemia; 71.3 µM in the assay with MOLT-4 leukemia; over 100 µM in the assay with HCT-15 colon; over 100 µM with OVCAR-5 ovarian; over 100 µM in the assay on NCI-H23 lung.

`COc1cc(O)c2c(=O)cc(C3(O)C=CC(=O)C=C3)oc2c1`: the TGI is over 100 µM in the assay with MOLT-4 leukemia, 1.11 µM in the assay on HCT-15 colon, 0.22 µM with ACHN renal and 2.46 µM in the assay on NCI-H23 lung.

`CCCCCCCN1C(=O)C(O)(c2ccc(C3(O)C(=O)N(CCCCCCC)c4ccccc43)s2)c2ccccc21` (stereo not given): the TGI in the assay on SF-539 CNS came out at 3.34 µM; in the assay with RPMI-8226 leukemia, 4.69 µM; in the assay with MOLT-4 leukemia, 4.16 µM; in the assay with HCT-15 colon, 4.42 µM; in the assay on ACHN renal, 4.92 µM; in the assay with OVCAR-5 ovarian it was 3.24 µM.

In the case of `Cc1ccsc1/C=N/Nc1nncc2ccccc12`, the TGI with RPMI-8226 leukemia, in the assay with MOLT-4 leukemia, with HCT-15 colon, with ACHN renal, in the assay on OVCAR-5 ovarian and in the assay on NCI-H23 lung was over 100 µM each time.

As to `N#CC(Cc1ccccc1Br)N(CCC1=CCCCC1)C(c1ccccc1)c1ccccc1` (stereo not given), the TGI was 83.5 µM in the assay on RPMI-8226 leukemia; over 100 µM in the assay on MOLT-4 leukemia; over 100 µM with HCT-15 colon; over 100 µM with ACHN renal; over 100 µM in the assay on OVCAR-5 ovarian; over 100 µM in the assay on NCI-H23 lung.

With `CN1CCC23c4c5ccc(O)c4OC2c2[nH]c4ccccc4c2CC3(O)C1C5` (stereo not given), the TGI in the assay with RPMI-8226 leukemia was 55 µM; in the assay on MOLT-4 leukemia it was 93.6 µM; in the assay with HCT-15 colon, over 100 µM; in the assay on ACHN renal, 65.1 µM; in the assay on OVCAR-5 ovarian it was over 100 µM; in the assay on NCI-H23 lung it was over 100 µM.

For `Cc1c(C)c2c(c(N)c1C#N)C(=O)N(CCN1CCNCC1)C2=O`, the TGI in the assay with SF-539 CNS is over 100 µM; with RPMI-8226 leukemia it was over 100 µM; in the assay with MOLT-4 leukemia, over 100 µM; with HCT-15 colon, over 100 µM; in the assay with ACHN renal it was over 100 µM; in the assay with OVCAR-5 ovarian, 81.1 µM.

Consider `Nc1nc(Cl)c2nnn(CC3CCC(CO)C3)c2n1` (stereo not given), for which the TGI in the assay on SF-539 CNS, in the assay with RPMI-8226 leukemia, in the assay on HCT-15 colon, in the assay with ACHN renal and in the assay on OVCAR-5 ovarian was over 100 µM throughout.

Regarding `COC(=O)c1ccccc1/C=C1\Cc2cc(C)c(C)cc2C1=O`, the TGI in the assay with SF-539 CNS, in the assay on RPMI-8226 leukemia, in the assay on MOLT-4 leukemia, in the assay on HCT-15 colon, in the assay on ACHN renal and in the assay on OVCAR-5 ovarian was over 100 µM in each case.
